# From PubChem BioAssay AID1259407 (Chemical Carcinogenesis Research Information System (CCRIS), 2018)
# Activity calls are given as the source filed them. How the calls were made is not given here.
# Tested on: CCRIS mutagenicity, Ames/micronucleus/aberration tests
# Assay: CCRIS mutagenicity studies
structure (smiles),measurement,setting,value
CCN(CC)N=O,mutagenic call,"End Point: IN VITRO MICRONUCLEUS, Test System: AHH-1 CELLS, Metabolic Activation: NONE",active; positive
same,mutagenic call,"End Point: IN VITRO MICRONUCLEUS, Test System: MCL-5 CELLS, Metabolic Activation: NONE",active; positive
same,mutagenic call,"Test System: AMES SALMONELLA TYPHIMURIUM, Strain/Indicator: TA97, Metabolic Activation: NONE, Method: PREINCUBATION",inactive; negative
same,mutagenic call,"Test System: AMES SALMONELLA TYPHIMURIUM, Strain/Indicator: TA97, Metabolic Activation: RAT LIVER S-9, AROCLOR, Method: PREINCUBATION",inactive; negative
same,mutagenic call,"Test System: AMES SALMONELLA TYPHIMURIUM, Strain/Indicator: TA98, Metabolic Activation: HAMSTER, LIVER, S-9, AROCLOR 1254 (30%), Method: PREINCUBATION",active; positive
same,mutagenic call,"Test System: AMES SALMONELLA TYPHIMURIUM, Strain/Indicator: TA98, Metabolic Activation: NONE, Method: PREINCUBATION",active; positive
same,mutagenic call,"Test System: AMES SALMONELLA TYPHIMURIUM, Strain/Indicator: TA98, Metabolic Activation: RAT LIVER S-9, AROCLOR, Method: PREINCUBATION",active; positive
same,mutagenic call,"Test System: AMES SALMONELLA TYPHIMURIUM, Strain/Indicator: TA98, Metabolic Activation: RAT, LIVER, S-9, AROCLOR 1254 (30%), Method: PREINCUBATION",inactive; negative
same,mutagenic call,"Test System: AMES SALMONELLA TYPHIMURIUM, Strain/Indicator: TA98, Metabolic Activation: RAT, LIVER, S-9, AROCLOR 1254, Method: STANDARD PLATE",active; positive
same,mutagenic call,"Test System: AMES SALMONELLA TYPHIMURIUM, Strain/Indicator: TA98, Metabolic Activation: RAT, LIVER, S-9, KC500 OR PHENOBARBITAL, Method: LIQUID SUSPENSION",active; positive
same,mutagenic call,"Test System: AMES SALMONELLA TYPHIMURIUM, Strain/Indicator: TA98, Metabolic Activation: RAT, LIVER, S-9, PHENOBARBITAL, Method: PREINCUBATION",active; positive
same,mutagenic call,"Test System: AMES SALMONELLA TYPHIMURIUM, Strain/Indicator: TA98NR, Metabolic Activation: NONE, Method: PREINCUBATION",inactive; negative
same,mutagenic call,"Test System: AMES SALMONELLA TYPHIMURIUM, Strain/Indicator: TA98NR, Metabolic Activation: RAT LIVER S-9, AROCLOR, Method: PREINCUBATION",active; positive
same,mutagenic call,"Test System: AMES SALMONELLA TYPHIMURIUM, Strain/Indicator: TA100, Metabolic Activation: HAMSTER, LIVER, S-9, AROCLOR 1254 (30%), Method: PREINCUBATION",active; positive
same,mutagenic call,"Test System: AMES SALMONELLA TYPHIMURIUM, Strain/Indicator: TA100, Metabolic Activation: MOUSE, INTACT UROTHELIAL CELLS, Method: FLUCTUATION TEST",active; positive
same,mutagenic call,"Test System: AMES SALMONELLA TYPHIMURIUM, Strain/Indicator: TA100, Metabolic Activation: MOUSE, KIDNEY, S-9, PHENETHYL ISOTHIOCYANATE, Method: PREINCUBATION",inactive; negative
same,mutagenic call,"Test System: AMES SALMONELLA TYPHIMURIUM, Strain/Indicator: TA100, Metabolic Activation: MOUSE, KIDNEY, S-9, Method: PREINCUBATION",active; positive
same,mutagenic call,"Test System: AMES SALMONELLA TYPHIMURIUM, Strain/Indicator: TA100, Metabolic Activation: MOUSE, LIVER, S-9, PHENETHYL ISOTHIOCYANATE, Method: PREINCUBATION",inactive; negative
same,mutagenic call,"Test System: AMES SALMONELLA TYPHIMURIUM, Strain/Indicator: TA100, Metabolic Activation: MOUSE, LIVER, S-9, Method: PREINCUBATION",active; positive
same,mutagenic call,"Test System: AMES SALMONELLA TYPHIMURIUM, Strain/Indicator: TA100, Metabolic Activation: MOUSE, LUNG, S-9, PHENETHYL ISOTHIOCYANATE, Method: PREINCUBATION",inactive; negative
same,mutagenic call,"Test System: AMES SALMONELLA TYPHIMURIUM, Strain/Indicator: TA100, Metabolic Activation: MOUSE, LUNG, S-9, Method: PREINCUBATION",inactive; negative
same,mutagenic call,"Test System: AMES SALMONELLA TYPHIMURIUM, Strain/Indicator: TA100, Metabolic Activation: NONE, Method: STANDARD PLATE",inactive; negative
same,mutagenic call,"Test System: AMES SALMONELLA TYPHIMURIUM, Strain/Indicator: TA100, Metabolic Activation: RABBIT, LIVER, S-9, Method: STANDARD PLATE",inactive; negative
same,mutagenic call,"Test System: AMES SALMONELLA TYPHIMURIUM, Strain/Indicator: TA100, Metabolic Activation: RABBIT, LUNG, S-9, Method: STANDARD PLATE",inactive; negative
same,mutagenic call,"Test System: AMES SALMONELLA TYPHIMURIUM, Strain/Indicator: TA100, Metabolic Activation: RABBIT, NASAL, S-9, Method: STANDARD PLATE",inactive; negative
same,mutagenic call,"Test System: AMES SALMONELLA TYPHIMURIUM, Strain/Indicator: TA100, Metabolic Activation: RAT LIVER S-9, AROCLOR, Method: PREINCUBATION",active; positive
same,mutagenic call,"Test System: AMES SALMONELLA TYPHIMURIUM, Strain/Indicator: TA100, Metabolic Activation: RAT, INTACT UROTHELIAL CELLS, Method: FLUCTUATION TEST",active; positive
same,mutagenic call,"Test System: AMES SALMONELLA TYPHIMURIUM, Strain/Indicator: TA100, Metabolic Activation: RAT, LIVER, S-9, AROCLOR 1254 (30%), Method: PREINCUBATION",inactive; negative
same,mutagenic call,"Test System: AMES SALMONELLA TYPHIMURIUM, Strain/Indicator: TA100, Metabolic Activation: RAT, LIVER, S-9, AROCLOR 1254, Method: PREINCUBATION",active; positive
same,mutagenic call,"Test System: AMES SALMONELLA TYPHIMURIUM, Strain/Indicator: TA100, Metabolic Activation: RAT, LIVER, S-9, KC500 OR PHENOBARBITAL, Method: LIQUID SUSPENSION",active; positive
same,mutagenic call,"Test System: AMES SALMONELLA TYPHIMURIUM, Strain/Indicator: TA100, Metabolic Activation: RAT, LIVER, S-9, PHENOBARBITAL, Method: PREINCUBATION",active; positive
same,mutagenic call,"Test System: AMES SALMONELLA TYPHIMURIUM, Strain/Indicator: TA100, Metabolic Activation: RAT, LUNG, S-9, Method: STANDARD PLATE",inactive; negative
same,mutagenic call,"Test System: AMES SALMONELLA TYPHIMURIUM, Strain/Indicator: TA100, Metabolic Activation: RAT, NASAL, S-9, Method: STANDARD PLATE",inactive; negative
same,mutagenic call,"Test System: AMES SALMONELLA TYPHIMURIUM, Strain/Indicator: TA100, Metabolic Activation: S-9, Method: PREINCUBATION",inactive; negative
same,mutagenic call,"Test System: AMES SALMONELLA TYPHIMURIUM, Strain/Indicator: TA102, Metabolic Activation: NONE, Method: PREINCUBATION",inactive; negative
same,mutagenic call,"Test System: AMES SALMONELLA TYPHIMURIUM, Strain/Indicator: TA102, Metabolic Activation: RAT LIVER S-9, AROCLOR, Method: PREINCUBATION",inactive; negative
same,mutagenic call,"Test System: AMES SALMONELLA TYPHIMURIUM, Strain/Indicator: TA104, Metabolic Activation: RAT, LIVER, S-9, AROCLOR 1254, Method: PREINCUBATION",active; positive
same,mutagenic call,"Test System: AMES SALMONELLA TYPHIMURIUM, Strain/Indicator: TA1530, Metabolic Activation: RAT, LIVER, S-9, PHENOBARBITAL, Method: PREINCUBATION",active; positive
same,mutagenic call,"Test System: AMES SALMONELLA TYPHIMURIUM, Strain/Indicator: TA1530, Metabolic Activation: RAT, LIVER, S-9, Method: STANDARD PLATE",active; positive
same,mutagenic call,"Test System: AMES SALMONELLA TYPHIMURIUM, Strain/Indicator: TA1535, Metabolic Activation: NONE, Method: PREINCUBATION",inactive; negative
same,mutagenic call,"Test System: AMES SALMONELLA TYPHIMURIUM, Strain/Indicator: TA1535, Metabolic Activation: RAT, LIVER, HEPATOCYTES, Method: PREINCUBATION",active; positive
same,mutagenic call,"Test System: AMES SALMONELLA TYPHIMURIUM, Strain/Indicator: TA1535, Metabolic Activation: RAT, LIVER, S-9, AROCLOR 1254, Method: PREINCUBATION",active; positive
same,mutagenic call,"Test System: AMES SALMONELLA TYPHIMURIUM, Strain/Indicator: TA1535, Metabolic Activation: RAT, LIVER, S-9, AROCLOR, Method: PREINCUBATION",active; positive
same,mutagenic call,"Test System: AMES SALMONELLA TYPHIMURIUM, Strain/Indicator: TA1535, Metabolic Activation: RAT, LIVER, S-9, SODIUM PHENOBARBITONE, Method: PREINCUBATION",active; positive
same,mutagenic call,"Test System: AMES SALMONELLA TYPHIMURIUM, Strain/Indicator: TA1535, Metabolic Activation: RAT, LIVER, S-9, Method: PREINCUBATION",active; positive
same,mutagenic call,"Test System: AMES SALMONELLA TYPHIMURIUM, Strain/Indicator: TA1535, Metabolic Activation: S-9, Method: PREINCUBATION",inactive; negative
same,mutagenic call,"Test System: AMES SALMONELLA TYPHIMURIUM, Strain/Indicator: TA1535ER, Metabolic Activation: NONE, Method: STANDARD PLATE",inactive; negative
same,mutagenic call,"Test System: AMES SALMONELLA TYPHIMURIUM, Strain/Indicator: TA1975, Metabolic Activation: RAT, LIVER, S-9, AROCLOR 1254, Method: PREINCUBATION",active; positive
